Consider one substance from publication PMC4767259 (Journal of nuclear medicine : official publication, Society …, 2015).

Series [1] deals with leg muscles (lateral gastrocnemius) and systemic muscles (spinotrapezius). The series can be described thus: 18F-FDG uptake PET imaging of muscles, SUV time-activity curve slope analysis. The conditions noted are these: SF group: insulin 3.39-48.48 IU/kg into tail vein, n = 3, mean ± SD. Format: in vivo, CD IGS rats.
The conditions of series [2]: intraarterial (left femoral artery) intervention, insulin 0.34-0.38 IU/kg, rats.

For the substance Insulin, in series [1], the “baseline of the 18F-FDG uptake SUVs” value is listed as 0.7547 ± 0.1208. For the same substance, the Adverse events result in series [2] was “No adverse events were observed”.
